{"source": "ChEMBL document CHEMBL4831514", "about": "“Novel betulin dicarboxylic acid ester derivatives as potent antiviral agents: Design, synthesis, biological evaluation, structure-activity relationship and in-silico study” (Eur J Med Chem, 2021)", "key": {"[1]": {"tested_on": "MDCK", "test": "(§1) Cytotoxicity against MDCK cells assessed as reduction in cell viability incubated for 72 hrs by MTT assay", "type": "cell-based, Canis lupus familiaris", "details": "dog, mdck, 72 h"}, "[2]": {"test": "as §1", "type": "cell-based, Canis lupus familiaris", "details": "dog, MDCK cells"}, "[3]": {"tested_on": "Vesicular stomatitis virus", "test": "Antiviral activity against Vesicular stomatitis virus Indiana infected in A549 cells assessed as reduction in virus titer preincubated for 24 hrs followed by viral infection and measured after 72 hrs by microscopic analysis", "type": "functional, organism-based"}, "[4]": {"tested_on": "Human adenovirus 5", "test": "Antiviral activity against Human adenovirus 5 Adenoid 75 infected in A549 cells assessed as inhibition of viral adsorption at early stage of replication treated for 1 hr during viral infection followed by replacement with fresh medium and measured after 72 hrs by MTT assay", "type": "functional, organism-based"}, "[5]": {"tested_on": "Human alphaherpesvirus 1", "test": "Antiviral activity against Human herpesvirus-1 MacIntyre infected in A549 cells assessed as inhibition of viral adsorption at early stage of replication treated for 1 hr during viral infection followed by replacement with fresh medium and measured after 48 hrs by MTT assay", "type": "functional, organism-based"}, "[6]": {"tested_on": "Human alphaherpesvirus 1", "test": "Antiviral activity against Human herpesvirus 1 MacIntyre infected in A549 cells assessed as reduction in virus titer preincubated for 24 hrs followed by viral infection and measured after 72 hrs by microscopic analysis", "type": "functional, organism-based"}, "[7]": {"tested_on": "A549", "test": "(§2) Cytotoxicity against human A549 cells assessed as reduction in cell viability incubated for 48 hrs by MTT assay", "type": "cell-based", "details": "a549, 48 h"}, "[8]": {"tested_on": "Human adenovirus 5", "test": "Antiviral activity against Human adenovirus 5 Adenoid 75 infected in A549 cells assessed as reduction in virus titer preincubated for 24 hrs followed by viral infection and measured after 72 hrs by microscopic analysis", "type": "functional, organism-based"}, "[9]": {"tested_on": "Enterovirus E", "test": "Antiviral activity against Enterovirus E LCR-4 infected in A549 cells assessed as inhibition of viral adsorption at early stage of replication treated for 1 hr during viral infection followed by replacement with fresh medium and measured after 72 hrs by MTT assay", "type": "functional, organism-based"}, "[10]": {"test": "(§3) Selectivity index, ratio of CC50 for cytotoxicity against human A549 cells to EC50 for antiviral activity against Human herpesvirus 1 MacIntyre infected in A549 cells assessed as reduction in virus titer treated 1 hr post viral infection followed by replacement with fresh medium with compounds and measured after 72 hrs by MTT assay", "type": "toxicity, cell-based", "details": "read-out: Selectivity Index"}, "[11]": {"tested_on": "Human alphaherpesvirus 1", "test": "as §3, with “Potency” for “Selectivity”, “acyclovir EC50” for “CC50 for cytotoxicity against human A549 cells”, “to test compound” for “to”, “48” for “72”", "type": "functional"}, "[12]": {"tested_on": "Human alphaherpesvirus 1", "test": "Antiviral activity against Human herpesvirus 1 MacIntyre infected in A549 cells assessed as reduction in virus titer treated 1 hr post viral infection followed by replacement with fresh medium with compounds and measured after 48 hrs by MTT assay", "type": "functional, organism-based", "details": "Human alphaherpesvirus 1, MacIntyre"}, "[13]": {"test": "as §2", "type": "cell-based", "details": "A549 cells"}}, "note": "Calls of active or inactive are those of the source. The calls are words filed in the database; no cut-off is given here.", "data": [{"smiles": "CCOC(=O)C1=C[C@@H](OC(CC)CC)[C@H](NC(C)=O)[C@@H](N)C1", "note": "[OSELTAMIVIR]", "values": [{"measurement": "CC20", "setting": "[1]", "result": 320.51, "unit": "µM"}, {"measurement": "CC50 at 72 h", "setting": "[2]", "result": 7870, "unit": "µM"}]}, {"smiles": "C=C(C)[C@@H]1CC[C@]2(COC(=O)CSCC(=O)O)CC[C@]3(C)[C@H](CC[C@@H]4[C@@]5(C)CC[C@H](O)C(C)(C)[C@@H]5CC[C@]43C)[C@@H]12", "values": [{"measurement": "Activity", "setting": "[3]", "result": "inactive"}, {"measurement": "Activity", "setting": "[4]", "result": "inactive"}, {"measurement": "Activity", "setting": "[5]", "result": "inactive"}, {"measurement": "Activity", "setting": "[6]", "result": "inactive"}, {"measurement": "CC20", "setting": "[7]", "result": 21.08, "unit": "µM"}, {"measurement": "Activity", "setting": "[8]", "result": "inactive"}, {"measurement": "CC20", "setting": "[1]", "result": 21.08, "unit": "µM"}, {"measurement": "CC50 at 72 h", "setting": "[2]", "result": 42.2, "unit": "µM"}, {"measurement": "Activity", "setting": "[9]", "result": "inactive"}]}, {"smiles": "C=C(C)[C@@H]1CC[C@]2(COC(=O)c3cccc(C(=O)O)c3)CC[C@]3(C)[C@H](CC[C@@H]4[C@@]5(C)CC[C@H](O)C(C)(C)[C@@H]5CC[C@]43C)[C@@H]12", "values": [{"measurement": "Activity", "setting": "[3]", "result": "inactive"}, {"measurement": "Activity", "setting": "[4]", "result": "inactive"}, {"measurement": "Activity", "setting": "[5]", "result": "inactive"}, {"measurement": "Activity", "setting": "[6]", "result": "inactive"}, {"measurement": "CC20", "setting": "[7]", "result": 21.15, "unit": "µM"}, {"measurement": "Activity", "setting": "[8]", "result": "inactive"}, {"measurement": "CC20", "setting": "[1]", "result": 42.3, "unit": "µM"}, {"measurement": "Activity", "setting": "[9]", "result": "inactive"}]}, {"smiles": "C=C(C)[C@@H]1CC[C@]2(COC(=O)c3ccccc3C(=O)O)CC[C@]3(C)[C@H](CC[C@@H]4[C@@]5(C)CC[C@H](O)C(C)(C)[C@@H]5CC[C@]43C)[C@@H]12", "values": [{"measurement": "Activity", "setting": "[3]", "result": "inactive"}, {"measurement": "Activity", "setting": "[4]", "result": "inactive"}, {"measurement": "Activity", "setting": "[5]", "result": "inactive"}, {"measurement": "Activity", "setting": "[6]", "result": "inactive"}, {"measurement": "CC20", "setting": "[7]", "result": 21.15, "unit": "µM"}, {"measurement": "Activity", "setting": "[8]", "result": "inactive"}, {"measurement": "CC20", "setting": "[1]", "result": 42.3, "unit": "µM"}, {"measurement": "Activity", "setting": "[9]", "result": "inactive"}]}, {"smiles": "C=C(C)[C@@H]1CC[C@]2(COC(=O)c3ccccc3C(=O)N3CCCCC3)CC[C@]3(C)[C@H](CC[C@H]4C3(C)CC[C@H]3C(C)(C)[C@@H](O)CC[C@@]34C)[C@@H]12", "note": "(single isomer, unassigned)", "values": [{"measurement": "Activity", "setting": "[3]", "result": "inactive"}, {"measurement": "Activity", "setting": "[4]", "result": "inactive"}, {"measurement": "selectivity ratio at 72 h", "setting": "[10]", "result": 2}, {"measurement": "Ratio EC50", "setting": "[11]", "result": 3}, {"measurement": "Activity", "setting": "[5]", "result": "inactive"}, {"measurement": "EC50", "setting": "[12]", "result": 32.7, "unit": "µM"}, {"measurement": "Activity", "setting": "[6]", "result": "inactive"}, {"measurement": "CC50 at 48 h", "setting": "[13]", "result": 65.4, "unit": "µM"}, {"measurement": "CC20", "setting": "[7]", "result": 65.45, "unit": "µM"}, {"measurement": "Activity", "setting": "[8]", "result": "inactive"}, {"measurement": "CC20", "setting": "[1]", "result": 32.72, "unit": "µM"}, {"measurement": "Activity", "setting": "[9]", "result": "inactive"}]}, {"smiles": "C=C(C)[C@@H]1CC[C@]2(COC(=O)CCC(=O)N3CCCCC3)CC[C@]3(C)[C@H](CC[C@@H]4[C@@]5(C)CCC(O)C(C)(C)[C@@H]5CC[C@]43C)[C@@H]12", "note": "(single isomer, unassigned)", "values": [{"measurement": "Activity", "setting": "[3]", "result": "inactive"}, {"measurement": "Activity", "setting": "[4]", "result": "inactive"}, {"measurement": "Activity", "setting": "[5]", "result": "inactive"}, {"measurement": "Activity", "setting": "[6]", "result": "inactive"}, {"measurement": "CC20", "setting": "[7]", "result": 69.83, "unit": "µM"}, {"measurement": "Activity", "setting": "[8]", "result": "inactive"}, {"measurement": "CC20", "setting": "[1]", "result": 17.46, "unit": "µM"}, {"measurement": "Activity", "setting": "[9]", "result": "inactive"}]}, {"smiles": "C#CCNC(=O)/C(C)=C/C(=O)OC[C@]12CC[C@@H](C(=C)C)[C@@H]1[C@H]1CC[C@@H]3[C@@]4(C)CC[C@H](O)C(C)(C)[C@@H]4CC[C@@]3(C)[C@]1(C)CC2", "values": [{"measurement": "Activity", "setting": "[3]", "result": "inactive"}, {"measurement": "Activity", "setting": "[4]", "result": "inactive"}, {"measurement": "Activity", "setting": "[5]", "result": "inactive"}, {"measurement": "Activity", "setting": "[6]", "result": "inactive"}, {"measurement": "CC20", "setting": "[7]", "result": 10.56, "unit": "µM"}, {"measurement": "Activity", "setting": "[8]", "result": "inactive"}, {"measurement": "CC20", "setting": "[1]", "result": 84.46, "unit": "µM"}, {"measurement": "Activity", "setting": "[9]", "result": "inactive"}]}, {"smiles": "C=C(C)[C@@H]1CC[C@]2(COC(=O)/C=C/C(=O)O)CC[C@]3(C)[C@H](CC[C@@H]4[C@@]5(C)CC[C@H](O)C(C)(C)[C@@H]5CC[C@]43C)[C@@H]12", "values": [{"measurement": "Activity", "setting": "[3]", "result": "inactive"}, {"measurement": "Activity", "setting": "[4]", "result": "inactive"}, {"measurement": "Activity", "setting": "[5]", "result": "inactive"}, {"measurement": "Activity", "setting": "[6]", "result": "inactive"}, {"measurement": "CC20", "setting": "[7]", "result": 11.55, "unit": "µM"}, {"measurement": "Activity", "setting": "[8]", "result": "inactive"}, {"measurement": "CC20", "setting": "[1]", "result": 5.73, "unit": "µM"}, {"measurement": "Activity", "setting": "[9]", "result": "inactive"}]}, {"smiles": "C=C(C)[C@@H]1CC[C@]2(COC(=O)CCCC(=O)N3CCSCC3)CC[C@]3(C)[C@H](CC[C@@H]4[C@@]5(C)CC[C@H](O)C(C)(C)[C@@H]5CC[C@]43C)[C@@H]12", "values": [{"measurement": "Activity", "setting": "[3]", "result": "inactive"}, {"measurement": "Activity", "setting": "[4]", "result": "inactive"}, {"measurement": "Activity", "setting": "[5]", "result": "inactive"}, {"measurement": "Activity", "setting": "[6]", "result": "inactive"}, {"measurement": "CC20", "setting": "[7]", "result": 122.7, "unit": "µM"}, {"measurement": "Activity", "setting": "[8]", "result": "inactive"}, {"measurement": "CC20", "setting": "[1]", "result": 61.35, "unit": "µM"}, {"measurement": "Activity", "setting": "[9]", "result": "inactive"}]}]}
